{"source": "paper PMC2612642", "about": "(Antiviral research, 2008)", "key": {"TC-83 strain of VEEV [1]": {"tested_on": "TC-83 strain of VEEV", "assay_type": "cell-based, Venezuelan equine encephalitis virus"}, "TC-83 strain of VEEV [2]": {"tested_on": "TC-83 strain of VEEV", "assay_type": "cell-based, Venezuelan equine encephalitis virus", "remark": "listed apart in the source"}, "TC-83 strain of VEEV [3]": {"tested_on": "TC-83 strain of VEEV", "assay_type": "cell-based, Venezuelan equine encephalitis virus", "remark": "listed apart in the source"}, "Vero cells [4]": {"tested_on": "Vero cells"}, "intracellular CTP pools": {"tested_on": "intracellular CTP pools", "assay_type": "cell-based"}, "TC-83 VEEV [5]": {"tested_on": "TC-83 VEEV", "assay": "microbe, parasite or virus in culture", "assay_type": "cell-based, Venezuelan equine encephalitis virus"}, "TC-83 VEEV [6]": {"tested_on": "TC-83 VEEV", "set-up": "species or system C3H/HeN mice", "conditions": "mouse, in vivo"}, "TC-83 VEEV [7]": {"tested_on": "TC-83 VEEV", "set-up": "species or system C3H/HeN mice", "conditions": "mouse, in vivo", "remark": "listed apart in the source"}, "TrD VEEV": {"tested_on": "TrD VEEV", "set-up": "species or system ICR mice", "conditions": "mouse, in vivo"}, "Vero cells [8]": {"tested_on": "Vero cells", "remark": "listed apart in the source"}, "[9]": {"conditions": "in vivo, iv; cited from earlier work"}, "TC-83 VEEV [10]": {"tested_on": "TC-83 VEEV", "assay": "microbe, parasite or virus in culture", "assay_type": "cell-based", "conditions": "Venezuelan equine encephalitis virus, read-out: EC50 (neutral red uptake)"}}, "note": "Read-outs that look alike come from different tables or passages of the source. Marks after values point to notes of the source that are not given here.", "data": [{"compound": "Nc1ccn([C@H]2C[C@@H](CO)[C@H](O)[C@@H]2O)c(=O)n1", "note": "(racemic) [(+/-)-carbodine, Carbocyclic cytidine]", "values": [{"measurement": "EC50 (vis)", "setting": "TC-83 strain of VEEV [1]", "value": 0.68, "unit": "µg/mL"}, {"measurement": "EC50 (NR)", "setting": "TC-83 strain of VEEV [2]", "value": 0.70, "unit": "mg/L"}, {"measurement": "EC90", "setting": "TC-83 strain of VEEV [3]", "value": 1.7, "unit": "mg/L"}, {"measurement": "IC50", "setting": "Vero cells [4]", "value": ">100", "unit": "mg/L"}]}, {"compound": "Nc1ccn([C@H]2C[C@@H](CO)[C@H](O)[C@@H]2O)c(=O)n1", "note": "[(+)-carbodine]", "values": [{"measurement": "EC50 (vis)", "setting": "TC-83 strain of VEEV [1]", "value": ">100", "unit": "µg/mL"}, {"measurement": "Activity against TC-83 vaccine strain of VEEV", "setting": "TC-83 strain of VEEV [2]", "value": "no activity"}, {"measurement": "EC50 (NR)", "setting": "TC-83 strain of VEEV [2]", "value": ">100", "unit": "mg/L"}, {"measurement": "EC90", "setting": "TC-83 strain of VEEV [3]", "value": ">100", "unit": "mg/L"}, {"measurement": "Intracellular CTP reduction", "setting": "intracellular CTP pools", "value": "not reduced"}, {"measurement": "IC50", "setting": "Vero cells [4]", "value": ">100", "unit": "mg/L"}]}, {"compound": "Nc1ccn([C@@H]2C[C@H](CO)[C@@H](O)[C@H]2O)c(=O)n1", "note": "[(-)-carbodine]", "values": [{"measurement": "EC50 (vis)", "setting": "TC-83 strain of VEEV [1]", "value": "0.3 ± 0.2 ^f μg/ml"}, {"measurement": "EC50 (NR)", "setting": "TC-83 strain of VEEV [2]", "value": "0.2 ± 0.0", "unit": "mg/L"}, {"measurement": "EC90", "setting": "TC-83 strain of VEEV [3]", "value": "0.4 ± 0.2", "unit": "mg/L"}, {"measurement": "Cytidine concentration at which activity was completely abolished", "setting": "TC-83 VEEV [5]", "value": "10 to 32", "unit": "µg/mL"}, {"measurement": "Reduction in intracellular CTP", "setting": "intracellular CTP pools", "value": 65, "unit": "%"}, {"measurement": "Mortality rate", "setting": "TC-83 VEEV [6]", "value": 50, "unit": "%"}, {"measurement": "Reduction of brain virus titer vs placebo", "setting": "TC-83 VEEV [7]", "value": 10, "unit": "fold"}, {"measurement": "Survival", "setting": "TrD VEEV", "value": "all animals died"}, {"measurement": "Mean time to death vs placebo", "setting": "TrD VEEV; ip", "value": "slight, but significant, extension"}, {"measurement": "IC50", "setting": "Vero cells [4]", "value": ">100", "unit": "mg/L"}, {"measurement": "IC50 (neutral red uptake)", "setting": "Vero cells [4]", "value": ">100", "unit": "mg/L"}, {"measurement": "IC50 (visual inspection)", "setting": "Vero cells [8]", "value": ">100", "unit": "mg/L"}]}, {"compound": "Nc1ccn([C@@H]2C=C(CO)[C@@H](O)[C@H]2O)c(=O)n1", "note": "[Cyclopentenyl cytosine]", "values": [{"measurement": "Adverse effects in human patients with solid tumors", "setting": "[9]", "value": "hypotension and death"}]}, {"compound": "Nc1ccn([C@@H]2O[C@H](CO)[C@@H](O)[C@H]2O)c(=O)n1", "note": "[Cytidine, cytidine, reference compound]", "values": [{"measurement": "EC50", "setting": "TC-83 VEEV [5]; Venezuelan equine encephalitis virus, read-out: EC50 (visual inspection)", "value": "> 100", "unit": "mg/L"}, {"measurement": "EC50", "setting": "TC-83 VEEV [10]", "value": "> 100", "unit": "mg/L"}]}, {"compound": "Interferon alfacon-1", "values": [{"measurement": "EC50 (vis)", "setting": "TC-83 strain of VEEV [1]", "value": 0.06, "unit": "µg/mL"}, {"measurement": "EC50 (NR)", "setting": "TC-83 strain of VEEV [2]", "value": 0.05, "unit": "mg/L"}, {"measurement": "EC90", "setting": "TC-83 strain of VEEV [3]", "value": 0.06, "unit": "mg/L"}, {"measurement": "EC50 (visual inspection)", "setting": "TC-83 VEEV [5]", "value": 0.06, "unit": "mg/L"}, {"measurement": "IC50", "setting": "Vero cells [4]", "value": ">10", "unit": "mg/L"}, {"measurement": "IC50 (neutral red uptake)", "setting": "Vero cells [4]", "value": ">10", "unit": "mg/L"}, {"measurement": "IC50 (visual inspection)", "setting": "Vero cells [8]", "value": ">10", "unit": "mg/L"}]}]}
